Results on 10 compounds are retold here after patent US11285099B2, “Topical phenytoin for use in the treatment of peripheral neuropathic pain” (Topical Innovations B.V., priority 2016, dated 2022).

“Also recorded” adds a separate entry of the source. Like-named read-outs stand apart in the source and are kept apart here.

One data set relates to neuropathic pain. Conditions: in vivo; cited from earlier work.
Data set [1] relates to peripheral neuropathic pain. In words: Patient cases: topical application on the skin, pain scored on the 11-point numerical rating scale (NRS). Conditions: individual patients of Cases 1-15.
The conditions of data set [2]: cited from earlier work.
For data set [3] the following is noted: partition coefficient between octanol and water; cited from earlier work.
For data set [4] the following is noted: after oral administration; cited from earlier work.

Consider `CC(C)C[C@H](CN)CC(=O)O` [pregabalin], for which, in the data set on neuropathic pain, the “day at which significant pain reduction or relief versus placebo was shown” value is 2 days and the “median onset of action (>30% pain reduction)” value is given as 36 days. Further, in data set [1], the “analgesic effect of other or earlier treatment in the patient's history” value (“analgesic effect” for short) was “did not have any effect” and the “tolerability of earlier treatment in the patient's history (words)” value (shortened to “tolerability of earlier treatment”) is reported as “induced too many side effects”. The “tolerability of earlier treatment” value in data set [1] (listed as Pregabalin) is “too much side effects”.
Consider `O=C1NC(=O)C(c2ccccc2)(c2ccccc2)N1.[Na]` [phenytoin sodium, sodium 5,5-diphenyl-2,4-imidazolidinedione], for which the solubility in water result is “about 2 mg/ml” in data set [2] (37° C., pH 10); 35 to 40 µg/mL in data set [2] (37° C., pH range between 1 and 6). Moreover, the “maximum solubility in water” value in data set [2] (37° C., pH 11.1) is “about 140 mg/mL”. For the same compound, the “pH at which dissolvable in water in significant amounts” value in data set [2] (according to US 2009/0022779) is on record as at least 12 pH.
In the case of `CNC1(c2ccccc2Cl)CCCCC1=O` (centres unmarked) [Ketamine], the “Log P” value in data set [3] was 2.9.
Regarding `CN(C)CCC=C1c2ccccc2CCc2ccccc21` [amitriptyline], in data set [1], the “analgesic effect” value is given as “no effect; also recorded: did not have any analgesic effect” and the “tolerability of earlier treatment” value is listed as “induced too many side effects”.
As for `COc1cccc(C2(O)CCCCC2CN(C)C)c1` (centres unmarked) [tramadol], in data set [1], the “analgesic effect” value is listed as “did not have any analgesic effect” and the “tolerability of earlier treatment” value was “induced too many side effects”.
For the compound `NCC1(CC(=O)O)CCCCC1` [gabapentin], the “analgesic effect” value in data set [1] is given as “did not have any effect”.
Take `O=[N+]([O-])O[C@H]1CO[C@H]2[C@@H]1OC[C@H]2O[N+](=O)[O-]` [Isosorbide dinitrate]: the “Log P” value in data set [3] is reported as 1.3.
With `CN(C)C(=O)C(CCN1CCC(O)(c2ccc(Cl)cc2)CC1)(c1ccccc1)c1ccccc1` [Loperamide], the “Log P” value in data set [3] is reported as 5.5.
As for `CNCC[C@H](Oc1cccc2ccccc12)c1cccs1` [duloxetine], in data set [1], the “analgesic effect” value is on record as “did not have any effect” and the “tolerability of earlier treatment” value is reported as “induced too many side effects”.
On to `O=C(O)Cc1ccccc1Nc1c(Cl)cccc1Cl` [diclofenac], for which the “Cmax. of diclofenac in corresponding tissue” value in data set [4] is 1160 ng/mL.

One may read the Log P as the decadic logarithm of the partition coefficient of the neutral form, usually between octanol and water.
